Results on 22 molecules are retold here after patent US20240189440A1, “TLR7 AND TLR8 AGONISTS FOR THE TREATMENT OF CANCER AND/OR INFECTIOUS DISEASES” (priority 2021, published 2024).

Assay [1] has as its system NFκB induction (SEAP) in Ramos-blue cells. Nature of the assay: NFkB activation in Ramos-Blue cells for additional TLR7 agonists (Example 31). Type of assay: cell-based. To be noted: for EC (2-fold SEAP signal): lowest concentration that doubles the SEAP background (nontreated) signal, read-out: Lowest concentration to induce 2x SEAP; for Fold increase in SEAP signal at lowest active concentration: versus nontreated background. The procedure:
A 3× serial dilution was performed in 10% DMSO in PBS for each payload to have a final range of concentration from 1000 uM to 76 nM. Ramos-blue cells (InvivoGen, cat #rms-sp) were cultured using high glucose DMEM media supplied with 10% fetal bovine serum according to the manufacturer guidelines. The media was supplemented with 50 U/mL penicillin, 50 ug/mL streptomycin, and 100 ug/mL normocin to prevent bacterial contamination. The cell density and viability were calculated using a Countess Cell Counter and the proper volume of cells was removed in order to have a seeding density of 0.2×10^6 cells/mL per well. 135 uL of the cell suspension was added to each well in a 96-well plate along with 15 uL of the corresponding payload treatment. Each assay point was run in triplicate and the plate was incubated at 37° C. with 5% CO2 for 24 or 72 hours. In order to assess the NFκB induction, the QUANTI-Blue™ solution was prepared by adding 200 uL of QB reagent (InVivogen cat #rep-qbs) and 200 uL of QB buffer to 19.6 mL of water. The resulting solution was vortexed and incubated at room temperature for ten minutes. The 96-well plate was centrifuged at 1990 rpm for ten minutes and 40 uL of the cell supernatant was added to 160 uL of the prepared QUANTI-Blue™ solution. The QB reaction plate was incubated at 37° C. for 24 hours. The plate was read using the Molecular Devices i3x plate reader at a wavelength of 630 nm to determine the amount of SEAP production. The table below illustrates the lowest concentration of each compound that results in a doubling of the SEAP background (nontreated) signal. As illustrated, compounds of the invention ranged from low nM to low micromolar.

For assay [2], the system named is NFκB pathway in Ramos-blue cells. The experiment in a line: Ramos-Blue NFκB/SEAP reporter assay with cysteine-capped linker-payloads, 72 h (Example 15). Type of assay: cell-based. The settings on record: cysteine-capped, 72 hours, SEAP at 630 nm, read-out: Relative Activation; for activation at 5 µM: Linker-Payload Dose 5 uM; for activation at 50 µM: Linker-Payload Dose 50 uM. On the procedure: A 50 mM cysteine stock was prepared in 0.1 M PBS pH 7.4. 10 equivalents of 50 mM cysteine were added to 1 equivalent of linker-payload to create a 2.50 mM solution. The reaction was vortexed and sat at room temperature for an hour to allow for the Michael addition to occur. After an hour, an aliquot was taken and run via UPLC-MS to ensure for the complete Michael reaction. The reaction was diluted to 1 mM using 0.1M PBS pH 7.4. The 1 mM solution was diluted to 500 uM and 50 uM in a 96-well plate to afford a final concentration of 50 uM and 5 uM in the cell suspension. The cell density and viability were calculated using the Countess Cell Counter and the proper volume of cells was removed in order to have a seeding density of 0.2×10^6 cells/mL per well. 135 uL of cell suspension was added to each well in a 96-well plate along with 15 uL of the corresponding linker-payload treatment. Each concentration was run in triplicate and incubated at 37° C. with 5% CO2 for 72 hours.
Invivogen's QUANTI-Blue™ solution was prepared by adding 200 uL of QB reagent and 200 uL of QB buffer to 19.6 mL of water. The resulting solution was vortexed and incubated at room temperature for ten minutes. The 96-well plate was centrifuged at 1990 rpm for ten minutes. Then, 40 uL of cell supernatant was added to 160 uL of the prepared QUANTI-Blue™ solution and incubated at 37° C. for 24 hours. The plate was read using the Molecular Devices i3x plate reader at a wavelength of 630 nm to determine the amount of SEAP production.
On the technique in general: A reporter such as luciferase makes a cellular process visible.

`CCCCc1nc2c(N)nc3ccccc3c2n1Cc1ccc(NC(=O)CCCNC(=O)OC(C)(C)C)cc1` [20c, tert-butyl(4-((4-((4-amino-2-butyl-1H-imidazo[4,5-c]quinolin-1-yl)methyl)phenyl)amino)-4-oxobutyl)carbamate]: in assay [1], the EC (2-fold SEAP signal) worked out at 0.0076 µM and the “Fold increase in SEAP signal at lowest active concentration” value (shortened to “Fold increase in SEAP signal”) came to 2.352.

For `CCCCc1nc2c(N)nc3ccccc3c2n1Cc1ccc(NC(=O)CCCCNC(=O)OC(C)(C)C)cc1` [20d, tert-butyl(5-((4-((4-amino-2-butyl-1H-imidazo[4,5-c]quinolin-1-yl)methyl)phenyl)amino)-5-oxopentyl)carbamate], in assay [1], the EC (2-fold SEAP signal) stood at 0.0076 µM and the “Fold increase in SEAP signal” value is 2.222.

With `CCCCc1nc2c(N)nc3ccccc3c2n1Cc1ccc(NC(=O)CCCCCNC(=O)OC(C)(C)C)cc1` [20e, tert-butyl(6-((4-((4-amino-2-butyl-1H-imidazo[4,5-c]quinolin-1-yl)methyl)phenyl)amino)-6-oxohexyl)carbamate], in assay [1], the EC (2-fold SEAP signal) was 0.069 µM and the “Fold increase in SEAP signal” value is reported as 2.983.

`CCCCc1nc2c(N)nc3ccccc3c2n1Cc1ccc(NC(=O)CN)cc1` [20f, 2-amino-N-(4-((4-amino-2-butyl-1H-imidazo[4,5-c]quinolin-1-yl)methyl)phenyl)acetamide]: in assay [1], the EC (2-fold SEAP signal) was 0.069 µM and the “Fold increase in SEAP signal” value is on record as 2.225.

In the case of `CCCCc1nc2c(N)nc3ccccc3c2n1Cc1ccc(NC(=O)CCN)cc1` [20g, 3-amino-N-(4-((4-amino-2-butyl-1H-imidazo[4,5-c]quinolin-1-yl)methyl)phenyl)propanamide], in assay [1], the EC (2-fold SEAP signal) came out at 0.62 µM and the “Fold increase in SEAP signal” value stood at 2.638.

Regarding `CCCCc1nc2c(N)nc3ccccc3c2n1Cc1ccc(NC(=O)CCCCCN)cc1` [20j, 6-amino-N-(4-((4-amino-2-butyl-1H-imidazo[4,5-c]quinolin-1-yl)methyl)phenyl)hexanamide], in assay [1], the EC (2-fold SEAP signal) stood at 0.21 µM and the “Fold increase in SEAP signal” value turned out to be 2.802.

Turning to `CCCCC(=O)Nc1ccc(Cn2c(CCCC)nc3c(N)nc4ccccc4c32)cc1` [20k, N-(4-((4-amino-2-butyl-1H-imidazo[4,5-c]quinolin-1-yl)methyl)phenyl)pentanamide], in assay [1], the EC (2-fold SEAP signal) worked out at 0.0076 µM and the “Fold increase in SEAP signal” value turned out to be 2.398.

With `CCCCc1nc2c(N)nc3ccccc3c2n1Cc1ccc(NC(C)=O)cc1` [20l, N-(4-((4-amino-2-butyl-1H-imidazo[4,5-c]quinolin-1-yl)methyl)phenyl)acetamide], in assay [1], the EC (2-fold SEAP signal) is 0.023 µM and the “Fold increase in SEAP signal” value was determined as 2.11.

Take `CCCCc1nc2c(N)nc3ccccc3c2n1Cc1ccc(NC(=O)OCC)cc1` [20m, ethyl (4-((4-amino-2-butyl-1H-imidazo[4,5-c]quinolin-1-yl)methyl)phenyl)carbamate]: in assay [1], the EC (2-fold SEAP signal) is 0.023 µM and the “Fold increase in SEAP signal” value turned out to be 3.188.

With `CCCCc1nc2c(N)nc3ccccc3c2n1Cc1ccc(NC(=O)OC(C)C)cc1` [20n, Isopropyl (4-((4-amino-2-butyl-1H-imidazo[4,5-c]quinolin-1-yl)methyl)phenyl)carbamate], in assay [1], the EC (2-fold SEAP signal) was determined as 0.0076 µM and the “Fold increase in SEAP signal” value worked out at 1.925.

Take `CCCCOC(=O)Cc1ccc(Cn2c(CCCC)nc3c(N)nc4ccccc4c32)cc1` [20o, Butyl 2-(4-((4-amino-2-butyl-1H-imidazo[4,5-c]quinolin-1-yl)methyl)phenyl)acetate]: in assay [1], the EC (2-fold SEAP signal) was determined as 0.069 µM and the “Fold increase in SEAP signal” value is 4.158.

As to `CCCCc1nc2c(N)nc3ccccc3c2n1Cc1cccc(OC)c1` [21e, 2-butyl-1-(3-methoxybenzyl)-1H-imidazo[4,5-c]quinoline-4-amine], in assay [1], the EC (2-fold SEAP signal) is 0.62 µM and the “Fold increase in SEAP signal” value was determined as 5.753.

As for `CCCCc1nc2c(N)nc3ccccc3c2n1Cc1cccc(O)c1` [21f, 3-((4-amino-2-butyl-1H-imidazo[4,5-c]quinolin-1-yl)methyl)phenol], in assay [1], the EC (2-fold SEAP signal) was determined as 0.21 µM and the “Fold increase in SEAP signal” value came to 2.902.

Take `CCCCc1nc2c(N)nc3ccccc3c2n1Cc1ccc(OC)cc1` [22e, 2-butyl-1-(4-methoxybenzyl)-1H-imidazo[4,5-c]quinolin-4-amine]: in assay [1], the EC (2-fold SEAP signal) was found to be 0.21 µM and the “Fold increase in SEAP signal” value was 2.537.

As for `CCCCc1nc2c(N)nc3ccccc3c2n1Cc1ccc(O)cc1` [22f, 4-((4-amino-2-butyl-1H-imidazo[4,5-c]quinolin-1-yl)methyl)phenol], in assay [1], the EC (2-fold SEAP signal) was determined as 0.069 µM and the “Fold increase in SEAP signal” value was 2.269.

For the molecule `CCCCc1nc2c(N)nc3ccccc3c2n1Cc1cccc(NC(=O)OC(C)(C)C)c1` [23e, Tert-butyl (3-((4-amino-2-butyl-1H-imidazo[4,5-c]quinoline-1-yl)methyl)phenyl)carbamate], in assay [1], the EC (2-fold SEAP signal) is 1.87 µM and the “Fold increase in SEAP signal” value is 4.344.

With `CCCCc1nc2c(N)nc3ccccc3c2n1Cc1cccc(N)c1` [23f, 1-(3-aminobenzyl)-2-butyl-1H-imidazo[4,5-c]quinoline-4-amine], in assay [1], the EC (2-fold SEAP signal) is 0.023 µM and the “Fold increase in SEAP signal” value is reported as 1.946.

On to `CCCCc1nc2c(N)nc3ccccc3c2n1Cc1ccc(CNC(=O)CCCCCN2C(=O)C=CC2=O)cc1` [Mc_E66, N-(4-((4-amino-2-butyl-1H-imidazo[4,5-c]quinolin-1-yl)methyl)benzyl)-6-(2,5-dioxo-2,5-dihydro-1H-pyrrol-1-yl)hexanamide], for which, in assay [2], the activation at 5 µM is 119% and the activation at 50 µM was -52.3%.

On to `CCCCc1nc2c(N)nc3ccccc3c2n1Cc1ccc(NC(=O)CCCCCN2C(=O)C=CC2=O)cc1` [Mc_E104, N-(4-((4-amino-2-butyl-1H-imidazo[4,5-c]quinolin-1-yl)methyl)phenyl)-6-(2,5-dioxo-2,5-dihydro-1H-pyrrol-1-yl)hexanamide], for which, in assay [2], the activation at 5 µM was found to be 704% and the activation at 50 µM was -52%.

Consider `CCOCc1nc2c(NC(=O)CCCCCN3C(=O)C=CC3=O)nc3ccccc3c2n1CC(C)(C)O` [Mc_Resiquimod, 6-(2,5-dioxo-2,5-dihydro-1H-pyrrol-1-yl)-N-(2-(ethoxymethyl)-1-(2-hydroxy-2-methylpropyl)-1H-imidazo[4,5-c]quinolin-4-yl)hexanamide], for which, in assay [2], the activation at 5 µM is 17.6% and the activation at 50 µM was -21%.

Take `CCCCc1nc2c(N)nc3ccccc3c2n1Cc1ccc(CNC(=O)OCc2ccc(NC(=O)C(CCCNC(N)=O)NC(=O)C(NC(=O)CCCCCN3C(=O)C=CC3=O)C(C)C)cc2)cc1` (centres unmarked) [Mc_ValCitPABC_E66, 4-(2-(2-(6-(2,5-Dioxo-2,5-dihydro-1H-pyrrol-1-yl)hexanamido)-3-methylbutanamido)-5-ureidopentanamido)benzyl 4-((4-amino-2-butyl-1H-imidazo[4,5-c]quinolin-1-yl)methyl)benzylcarbamate]: in assay [2], the activation at 5 µM worked out at 7.15% and the activation at 50 µM was -19.7%.

With “(3-((4-((4-amino-2-butyl-1H-imidazo[4,5-c]quinolin-1-yl)methyl)phenyl)amino)-3-oxopropyl)carbamate [20b]”, in assay [1], the EC (2-fold SEAP signal) is 0.0076 µM and the “Fold increase in SEAP signal” value amounted to 4.416.
